Entries after “also recorded” stand apart in the source; their conditions may differ.
Key:
[1] = tested on: other seizure types (tonic-clonic seizures); assay: Open label, expanded-access program: other seizure types; type: in vivo, human
Method: (§1) Patients were administered botanically derived purified CBD in a 100 mg/mL sesame oil-based solution at an initial dose of five milligrams per kilogram per day (mg/kg/day) in two divided doses. Dose was then increased weekly by 5 mg/kg/day to a goal of 25 mg/kg/day.
(§2) Seizure frequency, intensity, and duration were recorded by caregivers in a diary during a baseline period of at least 28 days. Changes in seizure frequency relative to baseline were calculated after 2 weeks and 1, 2, 3, 4, 6, 9 and 12 months of treatment. Epileptic spasms were counted by clusters.

[2] = Open label, expanded-access program: caregiver logs of cognitive changes, behavioural changes and adverse events; type: in vivo, human
Method: as §1
(§3) A maximum dose of 50 mg/kg/day could be utilised for patients who were tolerating the medication but had not achieved seizure control; these patients had further weekly titration by 5 mg/kg/day.
During subsequent follow-up visits, parents provided weekly logs regarding cognitive changes, behavioural changes, and adverse events while taking CBD. Additionally, subjects had electroencephalogram (EEG) testing prior to and after the initiation of CBD.

[3] = tested on: refractory epileptic spasms (ES); assay: Open label, expanded-access program: epileptic spasm frequency relative to baseline (caregiver diary); type: in vivo, human; conditions: for Percent Change in Spasm Frequency, Average: average of nine patients; for Percent Change in Spasm Frequency at CBD dose, Average: average of patients
Method: Subjects were required to be on one or more AEDs at stable doses for a minimum of two weeks prior to baseline and to have stable vagus nerve stimulation (VNS) settings and ketogenic diet ratios for a minimum of four weeks prior to baseline.
as §1, §3
There were nine patients in this study, and each received CBD for at least 12 months. Modifications were made to concomitant AEDs as per clinical indication.
as §2
Patients were defined as responders if they had more than 50% reduction in seizure frequency compared to baseline. […] The percent change in seizure frequency was calculated as follows: […]
The percent change reported at each time interval reflects reported seizure frequency over the past month relative to baseline. The EEG findings were correlated to the corresponding month seizure frequency change as well as the baseline seizure frequency.

epileptic spasms [4] = conditions: first-line treatment of epileptic spasms; cited from earlier work
epileptic spasms [5] = assay: Treatment history of enrolled patients before CBD; type: in vivo, human; conditions: before initiation of CBD treatment

## C=C(C)[C@@H]1CCC(C)=C[C@H]1c1c(O)cc(CCCCC)cc1O [CBD, cannabidiol]
[1]; after starting CBD treatment
  freedom from tonic-clonic seizures: one patient became seizure free of tonic-clonic seizures
[1]; other seizure types experienced by the patients
  frequency of other seizure types: effective in reducing the frequency of other seizure types
[2]; four of nine patients
  patients with caregiver-reported sustained improvements in alertness, verbal capacity and communications, cognitive availability, initiation of emotional and physical connections: 44%
[2]; patients 3 and 6 at 45 mg/kg/day and 50 mg/kg/day, reduced to 35 mg/kg/day
  adverse event leading to dose reduction: diarrhoea
[2]; treatment group of the program
  improvement in cognitive and behavioural domains (in words): significant improvement in cognitive and behavioural domains
[3]; 10 mg/kg/day
  Responder rate at CBD dose: 66.70%
  Percent Change in Spasm Frequency at CBD dose, Average: −67.50%
[3]; 20 mg/kg/day
  Responder rate at CBD dose: 77.80%
  Percent Change in Spasm Frequency at CBD dose, Average: −67.20%
[3]; 25 mg/kg/day
  Responder rate at CBD dose: 66.70%
  Percent Change in Spasm Frequency at CBD dose, Average: −61.40%
[3]; 35 mg/kg/day
  Responder rate at CBD dose: 57.10%
  Percent Change in Spasm Frequency at CBD dose, Average: −56.00%
[3]; 45 mg/kg/day
  Responder rate at CBD dose: 80.00%
  Percent Change in Spasm Frequency at CBD dose, Average: −80.90%
[3]; 50 mg/kg/day
  Responder rate at CBD dose: 83.30%
  Percent Change in Spasm Frequency at CBD dose, Average: −50.20%
[3]; 1 month of treatment
  Responder Rate (percent of patients with a greater than 50% reduction in spasm frequency): 77.8%
[3]; 2 months of treatment
  Responder Rate (percent of patients with a greater than 50% reduction in spasm frequency): 66.7%
[3]; 2 weeks of treatment
  Responder Rate (percent of patients with a greater than 50% reduction in spasm frequency): 66.7%
[3]; 3 months of treatment
  Responder Rate (percent of patients with a greater than 50% reduction in spasm frequency): 55.6%
[3]; 6 months of treatment
  Responder Rate (percent of patients with a greater than 50% reduction in spasm frequency): 77.8%
[3]; 9 months of treatment
  Responder Rate (percent of patients with a greater than 50% reduction in spasm frequency): 77.8%
[3]; 12 months of treatment
  Responder Rate (percent of patients with a greater than 50% reduction in spasm frequency): 77.8%
[3]; after 12 months of treatment, five of nine patients
  patients spasm-free: 55.6%
[3]; after one month of CBD treatment
  patients epileptic spasm-free: One patient was epileptic spasm-free
[3]; after two months of CBD treatment
  patients epileptic spasm-free: two other patients were epileptic spasm-free
[3]; 1 month
  Percent Change in Spasm Frequency, Average: −67.20%
[3]; 2 months
  Percent Change in Spasm Frequency, Average: −64.10%
[3]; 2 weeks
  Percent Change in Spasm Frequency, Average: −67.50%
[3]; 3 months
  Percent Change in Spasm Frequency, Average: −59.00%
[3]; 6 months
  Percent Change in Spasm Frequency, Average: −73.70%
[3]; 9 months
  Percent Change in Spasm Frequency, Average: −61.53%
[3]; 12 months
  Percent Change in Spasm Frequency, Average: −51.35%
[3]; overall conclusion of the program, adjunctive to AEDs
  effect on number of epileptic spasms (in words): significantly reduce the number of epileptic spasms; also recorded: significant reduction in epileptic spasms
[3]; patients 6, 7 and 8, after 12 months of treatment
  seizure freedom in patients suffering from TSC: all three were completely seizure free

## C=CC(N)CCC(=O)O (stereo not shown) [VGB, vigabatrin]
Epileptic spasms [4]
  significant risks: visual field defects
Epileptic spasms [5]
  outcome of treatment before CBD: lack of efficacy

## Adrenocorticotropin hormone (SYSMEHFRWGKPVGKKRRPVKVYPNGAEDESAEAFPLEF; Corticotropin; UniProt P01189 138-176, looked up) [ACTH, preferred first-line treatment of epileptic spasms]
Epileptic spasms [4]
  significant risks: increased risk of infection
Epileptic spasms [5]
  outcome of treatment before CBD: without significant benefit
